Experimental data published in US9937220B2, “Anti-diabetic nutraceutical composition from palm leaf extract” (priority 2009, dated 2018).

Tested on: STZ-induced diabetic rats
Experiment: Body weight of STZ-induced diabetic rats
Assay type: in vivo, rat
Settings: glibenclamide treated group (30 mg/kg)
Procedure: Adult normal and streptozotocin-induced diabetic male Sprague Dawley rats were randomly divided into groups. Palm leaf aqueous and alcoholic extracts (PLE) were fed to normal and STZ-induced diabetic rats at 50-200 mg/kg for 8 weeks. Blood sugar levels from fasting rats were monitored weekly. Untreated rats were used as negative control and glibenclamide (30 mg/kg) treated rats used as positive control.

`COc1ccc(Cl)cc1C(=O)NCCc1ccc(S(=O)(=O)NC(=O)NC2CCCCC2)cc1` [glibenclamide] was tested, and the “changes in body weight” value was “Significant changes in body weight”.
